Source: patent US20230384322A1, “COMPLEMENTOME ASSAY” (Complement Therapeutics Limited, priority 2020, published 2023)

Assays:
U87 GBM cells = experiment: Real-time RT-PCR of CFH/FHL-1/IDO expression in cultured U87 GBM cells; type: cell-based, human
Experimental: (§1) FIGS. 13A to 13E. Indoleamine 2,3 dioxygenase 1 (IDO) non-metabolically increases complement factor H (CFH) levels in human glioblastoma (GBM). (13A) Flow chart for the microarray experimental design, data analysis, as well as validation of results. Real-time RT-PCR confirmation of IDO regulatory effects on CFH expression in cultured (13B) U87 or (13C) PDX43 GBM. Cells were exposed to a variety of conditions including transfection with IDO specific siRNA (20 nM) or scrambled control siRNA for 16 hours, treatment with or without 100 ng/mL human interferon-gamma (IFN-γ), treatment with or without the IDO enzyme inhibitor, BGB-5777 (1 uM), or IFNγ plus BGB-5777 for 24 hours. Quantitative RT-PCR was performed (n=3 reflecting one representative experiment from 4 experimental repeats). (13D) Quantitative RT-PCR analysis of IDO and CFH mRNA expression on IFNγ-stimulated U87 cells treated with CFH siRNA or scrambled control siRNA. Same experimental conditions as in [13B] (n=3/group reflecting one representative experiment from 3 experimental repeats). (13E) mRNA expression levels for human IDO, CFH, and CD3 were quantified and compared among intracranial PDX43 and patient-resected newly-diagnosed or recurrent intracranial human GBM (n=4-9/group). Intracranially-engrafted (ic.) PDX43 was isolated from humanized mice with or without treatment of CD4′ and CD8^+ T cell depleting antibodies between 14-21 days post-intracranial injection. ***, P<0.001; ND: not detectable, ns: not significant. All bar graphs represent mean±SEM.
FIGS. 15A to 15H. Indoleamine 2,3 dioxygenase 1 (IDO) enhances the expression of both complement factor H (CFH) isoforms in human glioblastoma (GBM). (15A) Schematic representation of CFH transcript variants reflecting the full-length (CFH) and truncated (FHL-1) sequences. Pearson's correlation analysis of (15B) IDO and (15C) CD3E with CFH and FHL-1 using the TCGA GBM RNA-Seq dataset. (15D) Left panel: Western blot analysis of surgically-resected tumor tissue samples from both newly diagnosed GBM patients and recurrent GBM patients. Right panel: Protein expression of full-length and truncated CFH variants and IDO in IFNγ-stimulated U87 cells. Cells were treated with IFNγ and cultured in serum-free medium for 24 to 48 hours. Both cell lysates and cell culture supernatants were collected. The supernatants were concentrated with ultrafiltration and analyzed by Western blot along with cell lysate samples. One representative result is shown that reflects 4 experimental repeats. (15E) Time course analysis of IDO, CFH, FHL-1 mRNA expression after treatment with IFNγ in U87 (top row) and PDX43 (bottom row) GBM cells. The U87 cells were stimulated with 100 ng/ml human IFNγ and RNA lysates were extracted followed by quantitative RT-PCR analysis (n=4). (15F) Western blot of cell lysates and supernatants collected from the same experimental design as in top panel. Data from one representative experiment from 2 experiments are shown. (15G) Top panel: Western blot showing IDO protein levels in unmodified (Unmod.) as well as in CRISPR-Cas9 IDO-deleted (IDOKO) U87 cells. Unmod. U87 cells and IDOKO U87 cells were stimulated with 100 ng/mL human IFNγ for 24 hours. Protein lysates were collected from both untreated and IFNγ treated cells followed by Western blotting analysis; Lower panel: HPLC measurement of kynurenine (Kyn) and tryptophan (Trp) in Unmod. U87 and IDOKO U87 cells. (15H) Comparison of IDO, CFH, and FHL-1 mRNA expression induction in Unmod. and IDOKO U87 cells using quantified RT-PCR (n=3 per group that reflects 1 representative experiment after 2 repeats). ***, P<0.001; ND: not detectable. All bar graphs represent mean±SEM.
The microarray analysis was carried out at the Northwestern University NUSeq Core Facility using the human transcriptome analysis system, Clariom™ D Assay (Thermo Fisher Scientific). Briefly, 1×10^5 cells per well of U87 cells or IDO-OE U87 cells were seeded on 12-well plate. […]

PDX43 GBM cells = experiment: Real-time RT-PCR of CFH/FHL-1/IDO expression in cultured PDX43 GBM cells; type: cell-based, human; settings: IFNγ time course
Experimental: as §1, with “Same experimental conditions as in [13B] (n=3/group reflecting one representative experiment from 3 experimental repeats).” left out, “Intracranially-engrafted (ic.) PDX43 was isolated from humanized mice with or without treatment of CD4′ and CD8^+ T cell depleting antibodies between 14-21 days post-intracranial injection. ***, P<0.001; ND: not detectable, ns: not significant. All bar graphs represent mean±SEM.” left out
FIGS. 15A to 15H. […] The supernatants were concentrated with ultrafiltration and analyzed by Western blot along with cell lysate samples. […] The U87 cells were stimulated with 100 ng/ml human IFNγ and RNA lysates were extracted followed by quantitative RT-PCR analysis (n=4). […]

[1] = test system: U87, PDX12, PDX39, and PDX43; experiment: In vitro expression analysis of human CFH mRNA in different GBM cells with or without human IFNγ; type: cell-based
Excerpt: FIGS. 14A to 14I. Indoleamine 2,3 dioxygenase 1 (IDO) and complement factor H (CFH) mRNA levels positively correlate with T cell infiltration in patient-resected glioblastoma (GBM). (14A) mRNA expression levels for IDO and CFH in grade II (green; n=226), grade III (blue; n=249), and grade IV (GBM; red; n=172) glioma of the RNA Hi-Seq. Illumina dataset as analyzed in the cancer genome atlas (TCGA). Horizontal lines in the scatter plots represents mean±SEM. (14B) Pearson's correlation analysis for IDO and CFH mRNA levels within GBM and all-grade glioma. […] CFH mRNA levels were analyzed in U87 GBM cells co-cultured with either naïve or activated T cells or conditioned medium from activated T cells in the presence or absence of IFNγ-neutralizing antibodies. […]
Total RNA was extracted from freshly dissected tissue samples and cultured cells using the Trizol Reagent and PureLink RNA Mini Kit (Thermo Fisher Scientific), respectively. […] Quantitative real-time PCR was performed on a CFX96 Touch Real-Time PCR Detection System using the default program setting (Bio-Rad). […] The relative quantitation of gene expression was calculated using the 2-AACT method (29) with normalization of the target threshold cycle (CT) values to the internal housekeeping gene (GAPDH).

U87 cells = experiment: Western blotting of CFH, FHL-1 and IDO in U87 cell lysates and supernatants; type: cell-based, human; settings: serum-free medium 24 to 48 hours
Excerpt: FIGS. 15A to 15H. Indoleamine 2,3 dioxygenase 1 (IDO) enhances the expression of both complement factor H (CFH) isoforms in human glioblastoma (GBM). (15A) Schematic representation of CFH transcript variants reflecting the full-length (CFH) and truncated (FHL-1) sequences. Pearson's correlation analysis of (15B) IDO and (15C) CD3E with CFH and FHL-1 using the TCGA GBM RNA-Seq dataset. (15D) Left panel: Western blot analysis of surgically-resected tumor tissue samples from both newly diagnosed GBM patients and recurrent GBM patients. Right panel: Protein expression of full-length and truncated CFH variants and IDO in IFNγ-stimulated U87 cells. Cells were treated with IFNγ and cultured in serum-free medium for 24 to 48 hours. Both cell lysates and cell culture supernatants were collected. The supernatants were concentrated with ultrafiltration and analyzed by Western blot along with cell lysate samples. One representative result is shown that reflects 4 experimental repeats. […] The U87 cells were stimulated with 100 ng/ml human IFNγ and RNA lysates were extracted followed by quantitative RT-PCR analysis (n=4). […] (15H) Comparison of IDO, CFH, and FHL-1 mRNA expression induction in Unmod. and IDOKO U87 cells using quantified RT-PCR (n=3 per group that reflects 1 representative experiment after 2 repeats). ***, P<0.001; ND: not detectable. […]

Q: How did the “Effect on CFH expression (quantitative RT-PCR)” value (U87 GBM cells; U87 cells, siRNA 20 nM, 16 hours) turn out when “IDO-specific siRNA: human IDO-specific siRNA duplex (GE Health Dharmacon), SEQ ID NO:174 and 175 (chain 1 GCUUAUGACGCCUGUGUGAUU; chain 2 UCACACAGGCGUCAUAAGCUU; listed as RNA, chemistry not given here; listed as Homo sapiens)” was run?
A: decreased expression of CFH

Q: What does the source list for “IFNγ: human recombinant interferon-gamma (Shenandoah Biotechnology), T cell effector cytokine”?
A: Earliest time IDO mRNA expression is detectable after treatment (U87 GBM cells; 100 ng/ml human IFNγ time course): 4 h; IDO, CFH and FHL-1 mRNA expression induction (U87 GBM cells; CRISPR-Cas9 IDO-deleted (IDOKO) U87 cells): no such increase; Effect on CFH expression (quantitative RT-PCR) (U87 GBM cells; U87 cells, 100 ng/mL, 24 hours): increase of CFH expression; Earliest time full-length and truncated CFH variants increased after treatment (U87 GBM cells; U87 cells, 100 ng/ml human IFNγ time course): 12 h; IDO, CFH and FHL-1 mRNA expression induction (U87 GBM cells; unmodified U87 cells, 100 ng/mL): induced and upregulated; Earliest time full-length and truncated CFH variants increased after treatment (PDX43 GBM cells): 12 h; Effect on CFH mRNA expression in human GBM cells [1]: increased CFH expression; CFH and FHL-1 protein expression in cell culture supernatants (Western blot) (U87 cells): higher

B1: Complement Factor I (FI) (protein)
chain: KVTYTSQEDLVEKKCLAKKYTHLSCDKVFCQPWQRCIEGTCVCKLPYQCPKNGTAVCATNRRSFPTYCQQKSLECLHPGTKFLNNGTCTAEGKFSVSLKHGNTDSEGIVEVKLVDQDKTMFICKSSWSMREANVACLDLGFQQGADTQRRFKLSDLSINSTECLHVHCRGLETSLAECTFTKRRTMGYQDFADVVCYTQKADSPMDDFFQCVNGKYISQMKACDGINDCGDQSDELCCKACQGKGFHCKSGVCIPSQYQCNGEVDCITGEDEVGCAGFASVTQEETEILTADMDAERRRIKSLLPKLSCGVKNRMHIRRKRIVGGKRAQLGDLPWQVAIKDASGITCGGIYIGGCWILTAAHCLRASKTHRYQIWTTVVDWIHPDLKRIVIEYVDRIIFHENYNAGTYQNDIALIEMKKDGNKKDCELPRSIPACVPWSPYLFQPNDTCIVSGWGREKDNERVFSLQWGEVKLISNCSKFYGNRFYEKEMECAGTYDGSIDACKGDSGGPLVCMDANNVTYVWGVVSWGENCGKPEFPGVYTKVANYFDWISYHVGRPFISQYNV
Q: With B1 as the molecule, how does the “C3b breakdown in vitro (C3b incubated with FI and a fragment of cofactor CR1; time course followed by gel electrophoresis and GluC/SRM-MS)” value (C3b) read?
A: the formation of C3b fragments iC3b, C3f and C3c, and loss of intact C3b can be clearly detected over time
